The source of these data is patent US20240018157A1, “CYCLIC COMPOUNDS AND METHODS OF USING SAME” (Schrödinger, Inc., priority 2019, published 2024).

Usually IC50 stands for the concentration needed to halve the response being measured. A lower IC50 goes with inhibition by little substance.

This test deals with full-length MALT1 protein His-MALT1(1-824) (Homo sapiens (Human), UniProt Q9UDY8). The experiment in a line: MALT1 protease assay, Assay 2 (1 nM MALT1, Ac-LRSR-AMC substrate). The settings on record: 1 nM MALT1, 50 μM Ac-LRSR-AMC, 2 h pre-incubation, 8 hr incubation at RT. It counts as biochemical. As for the experimental part: MALT1 protease activity was assessed in an in vitro assay using a tetrapeptide as substrate and full-length MALT1 protein His-MALT1(1-824) purified from baculovirus-infected insect cells.
Chain of full-length MALT1 protein His-MALT1(1-824) (Q9UDY8 whole entry): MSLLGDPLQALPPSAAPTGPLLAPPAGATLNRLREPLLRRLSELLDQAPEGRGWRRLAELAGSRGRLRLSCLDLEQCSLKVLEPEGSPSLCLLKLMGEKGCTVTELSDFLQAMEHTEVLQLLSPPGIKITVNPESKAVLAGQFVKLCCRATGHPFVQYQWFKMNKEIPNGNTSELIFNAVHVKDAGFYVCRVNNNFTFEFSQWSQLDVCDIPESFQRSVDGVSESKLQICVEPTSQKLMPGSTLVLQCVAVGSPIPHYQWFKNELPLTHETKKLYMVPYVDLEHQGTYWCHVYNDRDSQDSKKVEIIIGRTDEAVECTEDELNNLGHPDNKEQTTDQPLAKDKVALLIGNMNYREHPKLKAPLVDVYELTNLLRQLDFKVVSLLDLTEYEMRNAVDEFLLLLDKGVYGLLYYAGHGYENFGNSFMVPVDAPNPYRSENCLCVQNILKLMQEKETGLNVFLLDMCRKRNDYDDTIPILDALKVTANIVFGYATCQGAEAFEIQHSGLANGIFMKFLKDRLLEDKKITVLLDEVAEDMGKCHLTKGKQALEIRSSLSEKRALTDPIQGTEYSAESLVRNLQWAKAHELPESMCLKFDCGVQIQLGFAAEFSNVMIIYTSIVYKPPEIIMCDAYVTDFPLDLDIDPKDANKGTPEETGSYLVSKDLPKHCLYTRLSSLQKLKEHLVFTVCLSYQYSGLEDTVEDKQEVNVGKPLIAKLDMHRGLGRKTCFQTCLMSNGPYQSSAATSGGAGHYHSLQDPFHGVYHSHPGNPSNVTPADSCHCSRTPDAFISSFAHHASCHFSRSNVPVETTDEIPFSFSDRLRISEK
The final assay buffer includes 1 nM (Assay 2) or 2 nM (Assay 1) of MALT1 full-length protein, 50 μM Ac-LRSR-AMC substrate, 50 mM Tris pH 7.5, 600 mM Sodium Citrate, 1 mM DTT, 1 mM EDTA, and 0.05% BSA in 384-well plate format using black microtiter square well plates (Optiplate 384-F, Perkin Elmer).
Test compounds were dissolved in 100% DMSO at stock of 10 mM, with final DMSO concentration 0.1%. Test compounds were pre-incubated with MALT1 protein for 2 h at room temperature. Substrate was added after the pre-incubation and fluorescence signal was measured using Envision at excitation 355 nm and emission 460 nm after 8 hr incubation at RT.
The fluorescence units were transformed to percentage of remaining activity by using the high control (HC, median of fluorescence signal from wells containing MALT1 protein, substrate, and DMSO) and low control (LC, median of fluorescence signal from wells with substrate only) with the formula below: […]
IC50 and Hill coefficient were obtained using Graph Pad Prism (Graph Pad software, Inc, USA) with non-linear regression analysis.
Turning to `C[C@@]1(C(F)(F)F)CN(C(=O)Nc2cc(NC3COC3)nc(C(F)(F)F)c2)c2cnc3cc(Cl)nn3c21` [compound 99, (R)-2-chloro-8-methyl-N-(2-(oxetan-3-ylamino)-6-(trifluoromethyl)pyridin-4-yl)-8-(trifluoromethyl)-7,8-dihydro-6H-pyrazolo[1,5-a]pyrrolo[2,3-e]pyrimidine-6-carboxamide], the IC50 fell in the range of 100 to 1000 nM.
For `C[C@@]1(C(F)(F)F)CN(C(=O)Nc2cc(C(F)(F)F)n[nH]2)c2cnc3cc(Cl)nn3c21` [compound 131, (R)-2-chloro-8-methyl-8-(trifluoromethyl)-N-(3-(trifluoromethyl)-1H-pyrazol-5-yl)-7,8-dihydro-6H-pyrazolo[1,5-a]pyrrolo[2,3-e]pyrimidine-6-carboxamide], the IC50 fell in the range of 10 to 100 nM.
Regarding `C[C@]1(C(F)(F)F)CN(C(=O)Nc2cnc(-n3nccn3)c(C#N)c2)c2cnc3cc(F)nn3c21` [compound 90, (S)-N-(5-cyano-6-(2H-1,2,3-triazol-2-yl)pyridin-3-yl)-2-fluoro-8-methyl-8-(trifluoromethyl)-7,8-dihydro-6H-pyrazolo[1,5-a]pyrrolo[2,3-e]pyrimidine-6-carboxamide], the IC50 fell in the range of 10 to 100 nM.
In the case of `CC1(C)CN=C(c2ncc(NC(=O)N3C[C@@](C)(C(F)(F)F)c4c3cnc3cc(Cl)nn43)cc2Cl)O1` [compound 118] it was 10 to 100 nM; in that of `COc1nc(OC2CN(C)C2)c(NC(=O)N2C[C@@](C)(C(F)(F)F)c3c2cnc2cc(Cl)nn32)cc1Cl` [compound 81, (R)-2-chloro-N-(5-chloro-6-methoxy-2-((1-methylazetidin-3-yl)oxy)pyridin-3-yl)-8-methyl-8-(trifluoromethyl)-7,8-dihydro-6H-pyrazolo[1,5-a]pyrrolo[2,3-e]pyrimidine-6-carboxamide], 100 to 1000 nM; in that of `CN(C)c1cc(NC(=O)N2C[C@@](C)(C(F)(F)F)c3c2cnc2cc(Cl)nn32)cnn1` [compound 101, (R)-2-chloro-N-(6-(dimethylamino)pyridazin-4-yl)-8-methyl-8-(trifluoromethyl)-7,8-dihydro-6H-pyrazolo[1,5-a]pyrrolo[2,3-e]pyrimidine-6-carboxamide], 100 to 1000 nM.
In turn, `C[C@@]1(C(F)(F)F)CN(C(=O)Nc2cc(C(F)F)on2)c2cnc3cc(Cl)nn3c21` [compound 102, (R)-2-chloro-N-(5-(difluoromethyl)isoxazol-3-yl)-8-methyl-8-(trifluoromethyl)-7,8-dihydro-6H-pyrazolo[1,5-a]pyrrolo[2,3-e]pyrimidine-6-carboxamide] returned an IC50 of 100 to 1000 nM.
`C[C@@]1(C(F)(F)F)CN(C(=O)Nc2cc(C(F)F)n[nH]2)c2cnc3cc(Cl)nn3c21` [compound 107, (R)-2-chloro-N-(3-(difluoromethyl)-1H-pyrazol-5-yl)-8-methyl-8-(trifluoromethyl)-7,8-dihydro-6H-pyrazolo[1,5-a]pyrrolo[2,3-e]pyrimidine-6-carboxamide] displayed an IC50 of 10 to 100 nM.
Under `CC(C)(O)c1cc(NC(=O)N2C[C@@](C)(C(F)(F)F)c3c2cnc2cc(Cl)nn32)cc(C(F)(F)F)n1` [compound 78, (R)-2-chloro-N-(2-(2-hydroxypropan-2-yl)-6-(trifluoromethyl)pyridin-4-yl)-8-methyl-8-(trifluoromethyl)-7,8-dihydro-6H-pyrazolo[1,5-a]pyrrolo[2,3-e]pyrimidine-6-carboxamide] stands 100 to 1000 nM; under `CNc1nnc(C(F)(F)F)cc1NC(=O)N1C[C@@](C)(C(F)(F)F)c2c1cnc1cc(Cl)nn21` [compound 112, (R)-2-chloro-8-methyl-N-(3-(methylamino)-6-(trifluoromethyl)pyridazin-4-yl)-8-(trifluoromethyl)-7,8-dihydro-6H-pyrazolo[1,5-a]pyrrolo[2,3-e]pyrimidine-6-carboxamide], 100 to 1000 nM.
Molecule `C[C@@H](N)COc1cc(NC(=O)N2C[C@@](C)(C(F)(F)F)c3c2cnc2cc(Cl)nn32)cn(C(F)F)c1=O` [compound 109, (R)-N-(5-((R)-2-aminopropoxy)-1-(difluoromethyl)-6-oxo-1,6-dihydropyridin-3-yl)-2-chloro-8-methyl-8-(trifluoromethyl)-7,8-dihydro-6H-pyrazolo[1,5-a]pyrrolo[2,3-e]pyrimidine-6-carboxamide] yielded an IC50 of 100 to 1000 nM.
In the case of `CN1CC(Oc2cc(NC(=O)N3C[C@@](C)(C(F)(F)F)c4c3cnc3cc(Cl)nn43)cn(C(F)F)c2=O)C1` [compound 110, (R)-2-chloro-N-(1-(difluoromethyl)-5-((1-methylazetidin-3-yl)oxy)-6-oxo-1,6-dihydropyridin-3-yl)-8-methyl-8-(trifluoromethyl)-7,8-dihydro-6H-pyrazolo[1,5-a]pyrrolo[2,3-e]pyrimidine-6-carboxamide] it was 100 to 1000 nM.
The molecule `C[C@@]1(C(F)(F)F)CN(C(=O)Nc2cc(C(F)F)ncn2)c2cnc3cc(Cl)nn3c21` [compound 106, (R)-2-chloro-N-(6-(difluoromethyl)pyrimidin-4-yl)-8-methyl-8-(trifluoromethyl)-7,8-dihydro-6H-pyrazolo[1,5-a]pyrrolo[2,3-e]pyrimidine-6-carboxamide] came in with an IC50 of 10 to 100 nM.
In the case of `C[C@@]1(C(F)(F)F)CN(C(=O)Nc2cnc(C(=O)N3CCC3)c(C(F)F)c2)c2cnc3cc(Cl)nn3c21` [compound 203, (R)-N-(6-(azetidine-1-carbonyl)-5-(difluoromethyl)pyridin-3-yl)-2-chloro-8-methyl-8-(trifluoromethyl)-7,8-dihydro-6H-pyrazolo[1,5-a]pyrrolo[2,3-e]pyrimidine-6-carboxamide] it was 100 to 1000 nM; in that of `Cc1cc(NC(=O)N2C[C@@](C)(C(F)(F)F)c3c2cnc2cc(Cl)nn32)cc(OC[C@H](C)N)n1` [compound 58, (R)-N-(2-((S)-2-aminopropoxy)-6-methylpyridin-4-yl)-2-chloro-8-methyl-8-(trifluoromethyl)-7,8-dihydro-6H-pyrazolo[1,5-a]pyrrolo[2,3-e]pyrimidine-6-carboxamide], 10 to 100 nM; in that of `CN1CC(Oc2cc(NC(=O)N3C[C@@](C)(C(F)(F)F)c4c3cnc3cc(Cl)nn43)cc(C(F)F)n2)C1` [compound 130, (R)-2-chloro-N-(2-(difluoromethyl)-6-((1-methylazetidin-3-yl)oxy)pyridin-4-yl)-8-methyl-8-(trifluoromethyl)-7,8-dihydro-6H-pyrazolo[1,5-a]pyrrolo[2,3-e]pyrimidine-6-carboxamide], 100 to 1000 nM.
In the case of `Cc1cn2ccc3c(c2n1)C(C)(C(F)(F)F)CN3C(=O)Nc1cnc(-n2nccn2)c(Cl)c1` (centres unmarked) [compound 193, N-(5-chloro-6(2H-1,2,3-triazol-2-yl)pyridin-3-yl)-2,9-dimethyl-9-(trifluoromethyl)-8,9-dihydro-7H-imidazo[1,2-a]pyrrolo[3,2-c]pyridine-7-carboxamide] it was 10 to 100 nM; in that of `C[C@@]1(C(F)(F)F)CN(C(=O)Nc2cc(C(F)F)nnc2C(N)=O)c2cnc3cc(Cl)nn3c21` [compound 148, (R)-N-(3-carbamoyl-6-(difluoromethyl)pyridazin-4-yl)-2-chloro-8-methyl-8-(trifluoromethyl)-7,8-dihydro-6H-pyrazolo[1,5-a]pyrrolo[2,3-e]pyrimidine-6-carboxamide], 100 to 1000 nM; in that of `Cn1cc(NC(=O)N2C[C@@](C)(C(F)(F)F)c3c2cnc2cc(Cl)nn32)cn1` [compound 164, (R)-2-chloro-8-methyl-N-(1-methyl-1H-pyrazol-4-yl)-8-(trifluoromethyl)-7,8-dihydro-6H-pyrazolo[1,5-a]pyrrolo[2,3-e]pyrimidine-6-carboxamide], 100 to 1000 nM.
With `CC(C)(O)Cn1ccc(-c2ncc(NC(=O)N3C[C@@](C)(C(F)(F)F)c4c3cnc3cc(F)nn43)cc2C(F)F)n1` [compound 162, (R)-N-(5-(difluoromethyl)-6-(1-(2-hydroxy-2-methylpropyl)-1H-pyrazol-3-yl)pyridin-3-yl)-2-fluoro-8-methyl-8-(trifluoromethyl)-7,8-dihydro-6H-pyrazolo[1,5-a]pyrrolo[2,3-e]pyrimidine-6-carboxamide], the IC50 is 10 to 100 nM.
Under `C[C@@]1(C(F)(F)F)CN(C(=O)Nc2ccnc(C(F)(F)F)c2F)c2cnc3cc(Cl)nn3c21` [compound 100, (R)-2-chloro-N-(3-fluoro-2-(trifluoromethyl)pyridin-4-yl)-8-methyl-8-(trifluoromethyl)-7,8-dihydro-6H-pyrazolo[1,5-a]pyrrolo[2,3-e]pyrimidine-6-carboxamide] stands 100 to 1000 nM; under `CN1CC[C@H](Oc2cc(OC(F)F)cc(NC(=O)N3C[C@@](C)(C(F)(F)F)c4c3cnc3cc(Cl)nn43)n2)C1` [compound 198, (R)-2-chloro-N-(4-(difluoromethoxy)-6-(((S)-1-methylpyrrolidin-3-yl)oxy)pyridin-2-yl)-8-methyl-8-(trifluoromethyl)-7,8-dihydro-6H-pyrazolo[1,5-a]pyrrolo[2,3-e]pyrimidine-6-carboxamide], 10 to 100 nM.
Under `CC(C)(O)c1cnn(-c2ncc(NC(=O)N3C[C@@](C)(C(F)(F)F)c4c3cnc3cc(Cl)nn43)cc2Cl)n1` [compound 180, (R)-2-chloro-N-(5-chloro-6-(4-(2-hydroxypropan-2-yl)-2H-1,2,3-triazol-2-yl)pyridine-3-yl)-8-methyl-8-(trifluoromethyl)-7,8-dihydro-6H-pyrazolo[1,5-a]pyrrolo[2,3-e]pyrimidine-6-carboxamide] stands 100 to 1000 nM.
